Reference: US20120052061A1, “THERAPIES FOR TREATING CANCER USING COMBINATIONS OF COX-2 INHIBITORS AND ANTI-HER2(ERBB2) ANTIBODIES OR COMBINATIONS OF COX-2 INHIBITORS AND HER2(ERBB2) RECEPTOR TYROSINE KINASE INHIBITORS” (Tragara Pharmaceuticals Inc., priority 2007, published 2012)
Like-named read-outs stand apart in the source and are kept apart here.

Legend:
[1] = tested on: human breast cancer cells (SK-BR-3); test: SK-BR-3 model (Example 8); assay type: in vivo, nude mice; conditions: trastuzumab intravenously
Description: Mice are injected subcutaneously in the left paw (1×10^6 tumor cells suspended in 30% Matrigel) and tumor volume is evaluated using a phlethysmometer twice a week for 30-60 days. Implantation of human breast cancer cells (SK-BR-3) into nude mice produces tumors that will reach 0.6-2 ml between 30-50 days. […] The data is expressed as the mean+/−SEM. Student's and Mann-Whitney tests are used to assess differences between means using the InStat software package.
The efficacy of both agents are determined by measuring tumor volume.
B. In a second assay, mice injected with SK-BR-3 cancer cells are then treated with 5-FU on days 12 through 15. […] The efficacy of both agents are determined by measuring tumor volume.

[2] = oral pharmacokinetics, all species examined; assay type: in vivo, mice, rats, dogs, and monkeys; conditions: orally administered
Description: (§1) Peak plasma concentrations were achieved between 1 and 3 hours after a dose of 5 mg/kg.

[3] = oral pharmacokinetics in rodents; assay type: in vivo, rodents (mice, rats)
Description: as §1

[4] = oral pharmacokinetics in dogs; assay type: in vivo
Description: as §1

[5] = oral pharmacokinetics in monkeys; assay type: in vivo
Description: as §1

[6] = human, in vivo, po
Description: as §1

[7] = in vivo
[8] = rat, in vivo
[9] = dog, in vivo
[10] = tested on: MCF-7 tumor; conditions: for tolerability: mouse, in vivo;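 for all read-outs here: mouse MCF-7 tumor model, oral gavage dosing started once mean tumor size reached 100-200 mg, endpoint at tumor volume 0.75 g or 90 days, whichever occurred earlier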
Description: Upon reaching an average tumor size of 100-200 mg the treatment was begun. Celecoxib and 2-(4-ethoxyphenyl)-4-methyl-1-(4-sulfamoylphenyl)-pyrrole were both formulated as a solution in 1% carboxymethyl cellulose/water and dosed orally by gavage. The endpoint for the study was when tumor volume reached 0.75 gms or 90 days, which ever came first.

[11] = human, in vivo
[12] = tested on: BT474 tumor; test: BT474 model, tumor growth delay study (Example 9); conditions: po, qd to end;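 note: female SCID mice bearing subcutaneous flank BT474 xenografts, oral gavage dosing started at 100-200 mg tumors, caliper volume twice weekly, endpoint tumor 0.75 g or 90 days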
Description: Female SCID mice were injected subcutaneously in the flank (1 mm^3 BT474 tumor) and tumor volume was evaluated using a caliper twice a week for up to 90 days, longer for responders. Upon reaching an average tumor size of 100-200 mg the treatment was begun. Celecoxib and 2-(4-ethoxyphenyl)-4-methyl-1-(4-sulfamoylphenyl)-pyrrole were both formulated as a solution in 1% carboxymethyl cellulose/water and dosed orally by gavage. […] The endpoint for the study was when tumor volume reached 0.75 gms or 90 days, which ever came first.

[13] = third assay (C): 5-FU i.p 50 mg/kg on days 14 through 17, COX-2 inhibitor in the diet
[14] = Groups 3 and 9: 30 mg/kg, po, daily
[15] = Groups 4 and 10: 10 mg/kg, po, daily
[16] = Groups 5 and 11: 3 mg/kg, po, daily
[17] = Groups 6 and 12: 1 mg/kg, po, daily
[18] = Groups 2 and 6: single agent 100 mg/kg
[19] = Groups 3 and 7: single agent 30 mg/kg
[20] = Group 5: single agent 300 mg/kg

O=c1[nH]cc(F)c(=O)[nH]1 [5-FU, 5-fluorouracil]
reduction of tumor volume ([1]; second assay (B): 5-FU i.p 50 mg/kg on days 12, 13, 14, and 15, pyrrole in the diet): 61% | reduction of tumor volume [1, 13]: 35%

CCOc1ccc(-c2cc(C)cn2-c2ccc(S(N)(=O)=O)cc2)cc1
absorption [2]: rapidly absorbed | half-life ([3]; mice, rats, plasma, 5 mg/kg, rodents, oral, read-out: elimination half life (t1/2)): 4 to 5 h | Oral availability ([3]; rodent): greatest | Oral availability [4]: 59% | Oral availability [5]: 34% | dose exposure relationship [6]: linear dose exposure relationship | toxicological findings [7]: expected findings related to inhibition of cyclooxygenase | minimum lethal dose [8]: 600 mg/kg | minimum lethal dose [9]: > 2000 mg/kg | Difference from control ([10]; Group 7: 0.3 mg/kg, po, daily): 2.0 | Median Total Time to Endpoint ([10]; Group 7: 0.3 mg/kg, po, daily): 7.5 days | Difference from control [10, 14]: 2.5 | Median Total Time to Endpoint [10, 14]: 8.0 days | Difference from control [10, 15]: 1.8 | Median Total Time to Endpoint [10, 15]: 7.3 days | Difference from control [10, 16]: 1.3 | Median Total Time to Endpoint [10, 16]: 6.8 days | Difference from control [10, 17]: 1.6 | Median Total Time to Endpoint [10, 17]: 7.1 days | tolerability ([10]; po): well-tolerated | active as a single agent in MCF-7 ([10]; single agent, po, daily): Neither | gastric or duodenal toxicity compared to placebo [11]: no increase in gastric or duodenal toxicity | % tumor growth delay ([12]; Group 4: single agent 10 mg/kg): −22% | Difference from control ([12]; Group 4: single agent 10 mg/kg): −8.5 | Median Total Time to Endpoint ([12]; Group 4: single agent 10 mg/kg): 29.7 days | Regressions: CR (complete regressions) ([12]; Group 4: single agent 10 mg/kg): 0/0/0 | Regressions: PR (partial regressions) ([12]; Group 4: single agent 10 mg/kg): 0/0/0 | Regressions: TFS (tumor free survivors) ([12]; Group 4: single agent 10 mg/kg): 0/0/0 | % tumor growth delay [12, 18]: −14% | Difference from control [12, 18]: −5.5 | Median Total Time to Endpoint [12, 18]: 32.7 days | Regressions: CR (complete regressions) [12, 18]: 0/0/0 | Regressions: PR (partial regressions) [12, 18]: 0/0/0 | Regressions: TFS (tumor free survivors) [12, 18]: 0/0/0 | % tumor growth delay [12, 19]: −16% | Difference from control [12, 19]: −6.2 | Median Total Time to Endpoint [12, 19]: 32.0 days | Regressions: CR (complete regressions) [12, 19]: 0/0/0 | Regressions: PR (partial regressions) [12, 19]: 0/0/0 | Regressions: TFS (tumor free survivors) [12, 19]: 0/0/0

Cc1ccc(-c2cc(C(F)(F)F)nn2-c2ccc(S(N)(=O)=O)cc2)cc1 [celecoxib, reference compound]
Difference from control ([10]; Group 8: 100 mg/kg, po, daily): 1.6 | Median Total Time to Endpoint ([10]; Group 8: 100 mg/kg, po, daily): 7.1 days | Difference from control [10, 14]: 2.1 | Median Total Time to Endpoint [10, 14]: 7.6 days | Difference from control [10, 15]: 2.1 | Median Total Time to Endpoint [10, 15]: 7.6 days | Difference from control [10, 16]: 1.4 | Median Total Time to Endpoint [10, 16]: 6.9 days | Difference from control [10, 17]: 1.7 | Median Total Time to Endpoint [10, 17]: 7.2 days | tolerability ([10]; po): well-tolerated | % tumor growth delay [12, 20]: −4% | Difference from control [12, 20]: −1.6 | Median Total Time to Endpoint [12, 20]: 36.6 days | Regressions: CR (complete regressions) [12, 20]: 0/0/0 | Regressions: PR (partial regressions) [12, 20]: 0/0/0 | Regressions: TFS (tumor free survivors) [12, 20]: 0/0/0 | % tumor growth delay [12, 18]: −4% | Difference from control [12, 18]: −1.4 | Median Total Time to Endpoint [12, 18]: 36.8 days | Regressions: CR (complete regressions) [12, 18]: 0/0/0 | Regressions: PR (partial regressions) [12, 18]: 0/0/0 | Regressions: TFS (tumor free survivors) [12, 18]: 0/0/0 | Regressions: CR (complete regressions) [12, 19]: 0/0/0 | Regressions: PR (partial regressions) [12, 19]: 0/0/0 | Regressions: TFS (tumor free survivors) [12, 19]: 0/0/0

O=P1(N(CCCl)CCCl)NCCCO1 (centres unmarked) [cyclophosphamide]
Difference from control ([10]; Group 2: 112 mg/kg Q4D×3): 9.2 | Median Total Time to Endpoint ([10]; Group 2: 112 mg/kg Q4D×3): 14.7 days

Cc1onc(-c2ccccc2)c1-c1ccc(S(N)(=O)=O)cc1 [valdecoxib]
reduction of tumor volume [1, 13]: 69%
